# Earlier results as cited in PubChem BioAssay AID1259409 (Chemical Carcinogenesis Research Information System (CCRIS), 2018).
# Tested on: rodent chemically induced tumor inhibition, incidence and multiplicity
# Test: CCRIS tumor inhibitor studies
# Settings: Species: MOUSE
smiles,measurement,setting,value
S=C=NCCc1ccccc1,"tumour outcome (control, treated, inhibition, significance)","Carcinogen: 4(METHYLNITROSAMINO)1-(3-PYRIDYL)-1-BUTANONE, 64091-91-4, Dose [Inhibitor]: 0, 5 UMOL IN 0.1 ML CORN OIL WITH 10% DMSO 2 HR PRIOR TO CARCINOGEN DOSE (STUDY DURATION: 16 WK), Route [Inhibitor]: GAVAGE, Strain/Sex: STRAIN-A/FEMALE, Target Tissue: Type of Lesion: LUNG: ADENOMA, Dose [Carcinogen]: 10 UMOL IN 0.1 ML SALINE ONCE, Promoter: NONE USED","100%, 100%, 0%, not significant"
same,"tumour outcome (control, treated, inhibition, significance)","Carcinogen: 4-(METHYLNITROSAMINO)-1-(3-PYRIDYL)-1-BUTANONE (NNK) [64091-91-4], Dose [Inhibitor]: 1.5 UM/G DIET, BEGINNING 13 WKS AFTER CARCINOGEN/PROMOTER TREATMENT (STUDY DURATION: 42 WK), Route [Inhibitor]: DIET, Strain/Sex: A/J/FEMALE, Target Tissue: Type of Lesion: LUNG: ADENOCARCINOMA, Dose [Carcinogen]: 3 µM WEEKLY FOR 8 DOSES, Promoter: BENZO[A]PYRENE [50-32-8]","42%, 35%, 17%, not significant"
same,"tumour outcome (control, treated, inhibition, significance)","Carcinogen: 4-(METHYLNITROSAMINO)-1-(3-PYRIDYL)-1-BUTANONE (NNK) [64091-91-4], Dose [Inhibitor]: 1.5 UM/G DIET, BEGINNING 13 WKS AFTER CARCINOGEN/PROMOTER TREATMENT (STUDY DURATION: 42 WK), Route [Inhibitor]: DIET, Strain/Sex: A/J/FEMALE, Target Tissue: Type of Lesion: LUNG: ADENOMA, Dose [Carcinogen]: 3 µM WEEKLY FOR 8 DOSES, Promoter: BENZO[A]PYRENE [50-32-8]","100%, 95%, 5%, not significant"
same,"tumour outcome (control, treated, inhibition, significance)","Carcinogen: 4-(METHYLNITROSAMINO)-1-(3-PYRIDYL)-1-BUTANONE (NNK) [64091-91-4], Dose [Inhibitor]: 3 UM/G DIET, BEGINNING 13 WKS AFTER CARCINOGEN/PROMOTER TREATMENT (STUDY DURATION: 42 WK), Route [Inhibitor]: DIET, Strain/Sex: A/J/FEMALE, Target Tissue: Type of Lesion: LUNG: ADENOCARCINOMA, Dose [Carcinogen]: 3 µM WEEKLY FOR 8 DOSES, Promoter: BENZO[A]PYRENE [50-32-8]","42%, 19%, 55%, p<0.05"
same,"tumour outcome (control, treated, inhibition, significance)","Carcinogen: 4-(METHYLNITROSAMINO)-1-(3-PYRIDYL)-1-BUTANONE [64091-91-4] (NNK), Dose [Inhibitor]: 3 UM/G DIET, BEGINNING 13 WKS AFTER CARCINOGEN/PROMOTER TREATMENT (STUDY DURATION: 42 WK), Route [Inhibitor]: DIET, Strain/Sex: A/J/FEMALE, Target Tissue: Type of Lesion: LUNG: ADENOMA, Dose [Carcinogen]: 3 µM WEEKLY FOR 8 DOSES, Promoter: BENZO[A]PYRENE [50-32-8]","100%, 100%, 0%, not significant"
same,"tumour outcome (control, treated, inhibition, significance)","Carcinogen: 4-(METHYLNITROSAMINO)-1-(3-PYRIDYL)-1-BUTANONE [64091-91-4], BENZO[A]PYRENE [50-32-8], Dose [Inhibitor]: 0.3 UMOL/G IN DIET FOR 10 WK BEGINNING 1 WK PRIOR TO FIRST CARCINOGEN DOSE (STUDY DURATION: 28 WK), Route [Inhibitor]: ORAL, Strain/Sex: A/J/FEMALE, Target Tissue: Type of Lesion: LUNG: TUMOR, Dose [Carcinogen]: 3 UMOL BAP + 3 UMOL NNK IN 0.1 ML COTTONSEED OIL 1X/WK FOR 8 WK (STUDY DURATION: 28 WK), Promoter: NONE","100%, 100%, 0%, not calculated"
same,"tumour outcome (control, treated, inhibition, significance)","Carcinogen: 4-(METHYLNITROSAMINO)-1-(3-PYRIDYL)-1-BUTANONE [64091-91-4], BENZO[A]PYRENE [50-32-8], Dose [Inhibitor]: 1 UMOL/G IN DIET FOR 10 WK BEGINNING 1 WK PRIOR TO FIRST CARCINOGEN DOSE (STUDY DURATION: 28 WK), Route [Inhibitor]: ORAL, Strain/Sex: A/J/FEMALE, Target Tissue: Type of Lesion: LUNG: TUMOR, Dose [Carcinogen]: 3 UMOL BAP + 3 UMOL NNK IN 0.1 ML COTTONSEED OIL 1X/WK FOR 8 WK (STUDY DURATION: 28 WK), Promoter: NONE","100%, 100%, 0%, not calculated"
same,"tumour outcome (control, treated, inhibition, significance)","Carcinogen: 4-(METHYLNITROSAMINO)-1-(3-PYRIDYL)-1-BUTANONE [64091-91-4], BENZO[A]PYRENE [50-32-8], Dose [Inhibitor]: 3 UMOL/G IN DIET FOR 10 WK BEGINNING 1 WK PRIOR TO FIRST CARCINOGEN DOSE (STUDY DURATION: 28 WK), Route [Inhibitor]: ORAL, Strain/Sex: A/J/FEMALE, Target Tissue: Type of Lesion: LUNG: TUMOR, Dose [Carcinogen]: 3 UMOL BAP + 3 UMOL NNK IN 0.1 ML COTTONSEED OIL 1X/WK FOR 8 WK (STUDY DURATION: 28 WK), Promoter: NONE","100%, 100%, 0%, not calculated"
same,"tumour outcome (control, treated, inhibition, significance)","Carcinogen: 4-(METHYLNITROSAMINO)-1-(3-PYRIDYL)-1-BUTANONE [64091-91-4], BENZO[A]PYRENE [50-32-8], Dose [Inhibitor]: 6 UMOL IN 0.1 ML COTTONSEED OIL 1X/WK FOR 8 WK 2 PRIOR TO EACH CARCINOGEN DOSE (STUDY DURATION: 16 WK), Route [Inhibitor]: GAVAGE, Strain/Sex: A/J/FEMALE, Target Tissue: Type of Lesion: LUNG: TUMOR, Dose [Carcinogen]: 3 UMOL BAP + 3 UMOL NNK IN 0.1 ML COTTONSEED OIL 1X/WK FOR 8 WK (STUDY DURATION: 16 WK), Promoter: NONE","100%, 100%, 0%, not calculated"
same,"tumour outcome (control, treated, inhibition, significance)","Carcinogen: 4-(METHYLNITROSAMINO)-1-(3-PYRIDYL)-1-BUTANONE [64091-91-4], Dose [Inhibitor]: 0.3 UMOL/G IN DIET FOR 10 WK BEGINNING 1 WK PRIOR TO FIRST CARCINOGEN DOSE (STUDY DURATION: 28 WK), Route [Inhibitor]: ORAL, Strain/Sex: A/J/FEMALE, Target Tissue: Type of Lesion: LUNG: TUMOR, Dose [Carcinogen]: 3 UMOL IN 0.1 ML COTTONSEED OIL 1X/WK FOR 8 WK (STUDY DURATION: 28 WK), Promoter: NONE","100%, 100%, 0%, not calculated"
same,"tumour outcome (control, treated, inhibition, significance)","Carcinogen: 4-(METHYLNITROSAMINO)-1-(3-PYRIDYL)-1-BUTANONE [64091-91-4], Dose [Inhibitor]: 1 UMOL/G IN DIET FOR 10 WK BEGINNING 1 WK PRIOR TO FIRST CARCINOGEN DOSE (STUDY DURATION: 28 WK), Route [Inhibitor]: ORAL, Strain/Sex: A/J/FEMALE, Target Tissue: Type of Lesion: LUNG: TUMOR, Dose [Carcinogen]: 3 UMOL IN 0.1 ML COTTONSEED OIL 1X/WK FOR 8 WK (STUDY DURATION: 28 WK), Promoter: NONE","100%, 100%, 0%, not calculated"
same,"tumour outcome (control, treated, inhibition, significance)","Carcinogen: 4-(METHYLNITROSAMINO)-1-(3-PYRIDYL)-1-BUTANONE [64091-91-4], Dose [Inhibitor]: 3 UMOL/G IN DIET FOR 10 WK BEGINNING 1 WK PRIOR TO FIRST CARCINOGEN DOSE (STUDY DURATION: 28 WK), Route [Inhibitor]: ORAL, Strain/Sex: A/J/FEMALE, Target Tissue: Type of Lesion: LUNG: TUMOR, Dose [Carcinogen]: 3 UMOL IN 0.1 ML COTTONSEED OIL 1X/WK FOR 8 WK (STUDY DURATION: 28 WK), Promoter: NONE","100%, 100%, 0%, not calculated"
same,"tumour outcome (control, treated, inhibition, significance)","Carcinogen: 4-(METHYLNITROSAMINO)-1-(3-PYRIDYL)-1-BUTANONE, 64091-91-4, Dose [Inhibitor]: 0, 0.2 UMOL 1/D FOR 4 D ADMINISTERED PRIOR TO CARCINOGEN TREATMENT (STUDY DURATION: 116 D), Route [Inhibitor]: GAVAGE, Strain/Sex: STRAIN A, Target Tissue: Type of Lesion: LUNG ADENOMA, Dose [Carcinogen]: 10 UMOL ONCE 2 HR AFTER FINAL DOSE OF INHIBITOR, Promoter: NONE USED","100%, 100%, 0%, not significant"
same,"tumour outcome (control, treated, inhibition, significance)","Carcinogen: 4-(METHYLNITROSAMINO)-1-(3-PYRIDYL)-1-BUTANONE, 64091-91-4, Dose [Inhibitor]: 0, 0.008% IN DIET FOR 17 WK BEGINNING 1 WK PRIOR TO CARCINOGEN DOSE (STUDY DURATION: 17 WK), Route [Inhibitor]: ORAL, Strain/Sex: STRAIN-A/FEMALE, Target Tissue: Type of Lesion: LUNG: ADENOMA, Dose [Carcinogen]: 10 UMOL IN 0.1 ML SALINE ONCE, Promoter: NONE USED","100%, 96%, 4%, not significant"
same,"tumour outcome (control, treated, inhibition, significance)","Carcinogen: 4-(METHYLNITROSAMINO)-1-(3-PYRIDYL)-1-BUTANONE, 64091-91-4, Dose [Inhibitor]: 0, 1 UMOL 1/D FOR 4 D ADMINISTERED PRIOR TO CARCINOGEN TREATMENT (STUDY DURATION: 116 D), Route [Inhibitor]: GAVAGE, Strain/Sex: STRAIN A, Target Tissue: Type of Lesion: LUNG: ADENOMA, Dose [Carcinogen]: 10 UMOL ONCE, Promoter: NONE USED","100%, 100%, 0%, not significant"
